Earlier results as cited in patent US8007545B2, “Deodorant compositions” (Kao Corporation, priority 2005, dated 2011).

settings: 1-octanol/water; actual database value or C log P

log P	SMILES
2.0	CCCCC(CC)COCC(O)CO (stereo not drawn) [b3-2, 2-Ethylhexyl monoglyceryl ether]
0.6	CCCCOCCOCCO [b3-3, Diethylene glycol monobutyl ether]
1.1	CCCCCCOC(CO)COCC(O)CO (stereo not drawn) [b3-1, Glyceryl ether monohexyl ether]
